Reference: US5648367A, “Aminoalkyloximes” (Hoechst Marion Roussel, Inc., priority 1995, dated 1997)
Counter-ions that a name gives are not always drawn.

Each molecule was assayed on Serotonin Reuptake (assay: in vitro inhibition of serotonin uptake ([3H]-5HT uptake into whole rat brain synaptosomes)). Settings: rat whole brain (minus cerebellum) synaptosomes; 50 nM [3H]-5HT; 5 minutes at 37° C.; pH 7.4; log probit analysis.
Format: biochemical, rat (Male CR Wistar rats)
Description: See, for example, W. K. Goodman, et al., Archives of General Psychiatry, 47, 577 (1990). […] In this assay, a modification of the tests described by A. S. Horn and R. C. A. M. Trace, British Journal of Pharmacology, 51, 399 (1974), A. Nagy and A. V. Delgado-Escueta, Journal of Neurochemistry, 43, 1114 (1984) and P. R. Dunkley, et al., Brain Research, 372, 115 (1986), the following reagents are prepared and employed:
Male CR Wistar rats (100-125 g)
3. Sucrose solution: 0.32M sucrose containing 5 mM HEPES and 0.1 mM EDTA; pH to 7.3 using Tris base.
4. A 0.1 mM stock solution of serotonin creatinine SO4 is made up in 0.01N HCl. This is used to dilute the specific activity of radiolabeled 5HT.
5. 5-[1,2-^3 H(N)]-Hydroxytryptamine creatinine sulfate (serotonin), specific activity 20-30 Ci/mmol, is used. The final desired concentration of [^3 H]-5HT in the assay is 50 nM. The dilution factor is 0.8. The KHBB is made up to contain 62.5 nM of [^3 H]-5HT.
6. For most assays, a 0.5 mM stock solution of the test compound is made up initially in either 10 μl of glacial acetic acid, 100 μl DMSO or 10 μl of the recrystallization solvent, to which is added approximately 10 ml of distilled water. Compounds are initially screened in duplicate at 3 concentrations (10^-8, 10^-7 and 10^-6 M) made up in water. […] To ensure consistency, the standard clomipramine is run with each assay.
Male Wistar rats are decapitated and the brain rapidly removed. Whole brain (minus cerebellum) is weighed and homogenized in 15 volumes of ice cold sucrose solution using a Potter-Elvejhem homogenizer. The following procedures are performed on ice. Homogenization should be done with 4-5 up and down strokes at medium speeds (setting 4.5 to 5) to minimize synaptosome lysis. The homogenate is centrifuged at 1000 g (3000 rpm, Sorvall SS-34 rotor) for 10 minutes at 0°-4° C. The supernatant is removed and approximately 10 ml per tube is carefully layered onto a discontinuous Percoll (Sigma cat# P-1644) gradient: 21% Percoll in sucrose solution at the bottom (15 ml per tube) and 10% Percoll in the middle (10 ml; colored with a few drops of phenol red for visibility).
The Percoil gradient tubes are carefully placed into a Beckman SW-28 swinging bucket rotor and spun in a Beckman XL90 ultracentrifuge using the following program: speed, 11,000 rpm (15,000 g) for 30 minutes at 4° C.; slow acceleration and deceleration (acceleration setting 9; deceleration setting 3). Tubes are carefully removed, and the top layer and the top part of the middle (red) layers are discarded using a pasteur pipette. The synaptosomes are located in the white fluffy band at the interface between the 10% and 21% Percoll layers. This is carefully removed, placed in a centrifuge tube, diluted with KHBB and spun at 21,000 g (13,000 rpm, Sorvall SS-34 rotor). The pellet (synaptosomes) is resuspended in KHBB (10 vol per gram original brain wet weight; 1 brain minus cerebellum weighs approximately 1.2 g; 2.5 brains are needed per typical assay).
20 μl Vehicle or appropriate drug
200 μl of the tissue suspension are added to each of 24 tubes (at a time) containing the 20 μl of vehicle or drug on ice. Three minutes later, 800 μl of KHBB containing [^3 H]-5HT are added, and tubes are vortexed. The rack containing the 24 tubes is moved from the ice bath to a water bath set at 37° C. The tubes are incubated for 5 minutes under 95% oxygen/5% carbon dioxide. Uptake is terminated by filtration through GF/B filter strips using a Brandel cell harvester (filter strips are presoaked in ice cold filtration buffer). Tubes are washed once with 5 ml of ice cold filtration buffer. Filter disks are placed in scintillation vials to which are added 10 ml of scintillation fluid (EcoScint). Filters are allowed to sit overnight before being counted.
For each assay, 3 tubes are incubated with 20 μl of vehicle at both 37° C. and 0° C.
In the case of COc1ccc(C(CCn2ccnc2)=NOCCN)cc1 [4'-Methoxy-3-(1-(1H)-imidazolyl)propiophenone O-(2-aminoethyl)oxime difumarate hydrate], the IC50 is reported as 1280 nM.
Molecule NCCON=C(CCCn1ccnc1)c1ccc(F)cc1 [1-(4-Fluorophenyl)-4-(1-(1H)-imidazolyl)-1-butanone O-(2-aminoethyl)oxime dihydrochloride] has an IC50 of 257 nM.
With NCCON=C(CCn1ccnc1)c1ccc(Cl)cc1 [4'-Chloro-3-(1-(1H)-imidazolyl)propiophenone O-(2-aminoethyl)oxime difumarate] the IC50 was 128 nM.
Work on NCCON=C(CCCn1ccnc1)c1ccc(Cl)cc1 [1-(4-Chlorophenyl)-4-(1-(1H)-imidazolyl)-1-butanone O-(2-aminoethyl)oxime dihydrochloride] yielded an IC50 of 160 nM.
With NCCON=C(CCn1ccnc1)c1ccc(C(F)(F)F)cc1 [3-(1-(1H)-Imidazolyl)-1-(4-trifluoromethylphenyl)-1-propanone O-(2-aminoethyl)oxime dihydrochloride] the IC50 was 164 nM.
In the case of NCCON=C(CCCn1ccnc1)c1ccc(C(F)(F)F)cc1 [4-(1-(1H)-Imidazolyl)-1-(4-trifluoromethylphenyl)-1-butanone O-(2-aminoethyl)oxime dihydrochloride], the IC50 is reported as 80 nM.
Molecule NCCON=C(CCCn1ccnc1)c1ccccc1 [4-(1-(1H)-Imidazolyl)-1-phenyl-1-butanone O-(2-aminoethyl)oxime dihydrochloride] has an IC50 of 1810 nM.
In the case of Cc1nccn1CCCC(=NOCCN)c1ccccc1 [4-(2-Methyl-1-(1H)-imidazolyl)-1-phenyl-1-butanone O-(2-aminoethyl)oxime dihydrochloride], the IC50 is reported as 656 nM.
